Laboratory results taken from publication PMC11979881, “Engineering Multifunctional Peptide-Decorated Nanofibers for Targeted Delivery of Temozolomide across the Blood–Brain Barrier” (Molecular Pharmaceutics, 2025).

Assays:
[1] = test system: 3D U-87; test: PrestoBlue cell viability, 3D U-87 spheroids; format: cell-based, human; conditions: 3D U-87, 10 μM TMZ, 72 h, treated every 24 h
Experimental: Once the appropriate concentration corresponding to the greatest lowering of cell viability was established, we proceeded with the 3D U-118 and 3D U-87 cell assays. To produce 3D U-118 and 3D U-87 cells, we used the hanging drop method. Briefly, 10,000 cells per drop were placed in the lid of a 100 mm dish, creating a hydration chamber by placing PBS in the dish bottom. After incubating for 48 h at 37 °C/5% CO2, the aggregates were transferred to a 48-well plate (5 spheroids per well: approximately 50,000 cells/well). The 3D cells were treated every 24 h for 3 days. Each treatment was conducted on 10 spheroids: approximately 100,000 cells for each experimental class: 1) control; 2) NF-t; 3) NF-TMZ (10 μM); 4) free TMZ (10 μM). At the end of the incubation time, a cell viability assay was performed with using the PrestoBlue assay: the cells were incubated for 90 min, according to the manufacturer’s protocol. At the end of the incubation time, we measured the absorbance at 570 nm (with 600 nm as the reference wavelength) using a Bio-Tek Synergy HT Microplate reader.

[2] = test system: U87 MG spheroids; test: Spheroid shape descriptors (Fiji), U87 MG; format: cell-based, human
Experimental: (§1) To identify apoptotic and necrotic cells, Annexin V-FITC/Propidium Iodide (PI) assay was performed according to the manufacturer’s protocol. Annexin V highlights apoptotic cells by binding to phosphatidylserine (PS) on their membranes . Propidium Iodide (PI) binds to the DNA of necrotic cells, as it is not permeable to the cell membrane. Cells lose the membrane integrity, Annexin V-FITC/PI can enter the cells. After the 3D cell treatment, cells were stained with Annexin V-FITC/PI for 20 min in the dark. After washing with PBS, nuclei were labeled with 4′,6-diamidino-2-phenylindole (DAPI) for 5 min. Images of the 3D cells were acquired using the JuLi Stage_RealTime Cell History Recorder microscope with a 10x objective, using different channels: RFP, GFP, and DAPI. The images were corrected for brightness and contrast using Fiji software and analyzed to evaluate morphological parameters after treatments. For each experimental condition, three different assays were repeated.
(§2) To evaluate shape descriptors, 10 spheroids for each formulation were imaged and analyzed by Fiji software (Table 4).
(§3) Table 4 was obtained using Fiji software, for U-118 and U-87 spheroids treated with NF-TMZ, free TMZ, and NF-t, compared with controls (no treatment), ***p < 0.001. Circularity was calculated as [drawing 3] . Values of 1.0 indicate a perfect circle; while as the value approaches 0.0, it indicates an increasingly elongated shape. Feret’s diameter was the maximum caliper of the object, also known as the longest distance between any two points along the selection boundary. The minimum caliper diameter is indicated as Min Feret. The aspect ratio of the particle’s fitted ellipse was calculated as [drawing 4] and is indicated as AR. Roundness was calculated as 4 [drawing 5] and is the inverse of AR. Shape descriptors describe the eventual changes in spheroid morphology following treatment.

[3] = test system: 3D U-118; test: Annexin V-FITC/Propidium Iodide assay, 3D U-118; format: cell-based, human; conditions: 3D U-118, 24 h, TMZ 10 μM
Experimental: as §1

[4] = test system: human brain microvascular endothelial cells (HBMEC); test: PrestoBlue cell viability, HBMEC; format: cell-based; conditions: treated every 24 h for 3 days, TMZ 10 μM
Experimental: To verify whether NF-t or NF-TMZ influenced healthy brain endothelial cells constitutively expressing EGFRs, the experiment described above was conducted on human brain microvascular endothelial cells (HBMEC) and brain endothelial cells (bEnd.3) to assess their effects . Cells were seeded in a 96-well plate (15,000 cells per well) in their appropriate culture medium. After 24 h, cells were treated likewise with U-118 and U-87 cells with 10 μM TMZ, both conjugated and unconjugated with NF-t. The control was performed on cells cultured only in the medium. Under the same conditions as for 2D cells, the PrestoBlue assay was performed. […] TMZ release from NF-TMZ was evaluated using matrix metalloproteinase-9 (MMP-9). In particular, NF-TMZ was prepared as reported before and hydrated in the following buffer solution: 50 mM HEPES, 200 mM NaCl, 10 mM CaCl2, and 1 mM ZnCl2, at pH 7. The MMP-9 was preactivated with APMA 100 μM and Tris-HCl 50 mM (pH 7.2) and was left at 37 °C for 3 h.[33],[35] Once activated, MMP-9 was added to NF-TMZ and the culture medium at a final concentration of 40 nM; and cells were incubated for 72 h.

[5] = test system: 3D U-87; test: Annexin V-FITC/Propidium Iodide assay, 3D U-87; format: cell-based, human; conditions: TMZ 10 μM
Experimental: as §1

[6] = test system: U-118 MG; test: PrestoBlue cell viability, 2D U-118; format: cell-based, human
Experimental: (§4) Glioblastoma/astrocytoma U-87 MG (U-87) and glioma U-118 MG (U-118) cell lines derived from the human brain were plated in 25 cm^2 flasks. They were grown individually in Dulbecco’s modified eagle’s medium high glucose (DMEM), supplemented with fetal bovine serum (FBS, 10%), penicillin/streptomycin (P/S, 100 U/mL), and L-glutamine (L/GLUT, 2 mM, Sigma-Aldrich), in a humidified incubator (37 °C, 5% CO2). At 70% confluence, cells were individually detached with a 0.25% solution of trypsin-EDTA.
(§5) For 2D experiments, U-118 and U-87 cells were seeded in 48-well plates, at approximately 20,000 cells per well in DMEM culture medium with 10% FBS, under standard cell culture conditions (5% CO2, 37 °C). Once the cells were attached, they were treated for 24, 48, and 72 h with 1) NF-TMZ carrying TMZ at different concentrations: 2.5, 5, 7.5, and 10 μM; 2) NF-t; 3) free TMZ at different concentrations (0, 10, 100, and 250 μM). […] At the end of the incubation time, a cell viability assay was performed using the PrestoBlue assay: the cells were incubated for 1 h according to the manufacturer’s protocol, and then absorbance was measured at 570 nm (with 600 nm as the reference wavelength) using a Bio-Tek Synergy HT Microplate reader.

[7] = test system: U118 MG spheroids; test: Spheroid shape descriptors (Fiji), U118 MG; format: cell-based, human
Experimental: as §1, §2, §3

[8] = test system: U-87 MG; test: PrestoBlue cell viability, 2D U-87; format: cell-based, human
Experimental: as §4, §5

[9] = test system: 3D U-87; test: PrestoBlue viability on 3D dynamic in vitro BBB model, 3D U-87; format: cell-based, human; conditions: 3D U-87 in lower chamber, injection into upper chamber, TMZ 10 μM, 72 h
Experimental: (§6) To evaluate the effects of NF-TMZ on fluid-dynamically cultured 3D GBM cells, we set up different bioreactors containing HBMEC and hPC-PL cells in the upper chamber and 3D U-118 cells or 3D U-87 cells in the lower chamber. NF-TMZ (10 μM), NF-t, and free TMZ (10 μM) were injected into the upper chamber, and their effects were evaluated after 72 h using the PrestoBlue viability assay. Briefly, 72 h after treatment, spheroids in the lower chamber were taken out and placed inside 48-well plates, and the PrestoBlue viability reagent (1:10) was added for 1.5 h. The absorbance was quantified using a Bio-Tek Synergy HT Microplate Reader. The control bioreactor was performed with HBMEC and hPC–PL cells in the upper chamber; and 3D U-118 MG cells and 3D U-87 MG cells in the lower chamber without treatment.

[10] = cited from earlier work
From the text: GBM is the most aggressive type of brain cancer, with a 5-year survival rate of less than 5% and a median survival period of 12–15 months.[9],[10] The standard treatment, consisting of surgery followed by chemotherapy with temozolomide (TMZ) and radiation therapy, marginally improves survival.

[11] = test system: U-118 MG; conditions: U-118, 72 h, same experimental conditions; cited from earlier work
Experimental: In 2D experiments, we observed a remarkable effect on U-118 cells with all nanofibers carrying TMZ at different concentrations, which increased proportionally with the concentration. In particular, treatment with NF-TMZ (carrying TMZ at a concentration of 10 μM) caused a decrease in cell viability at 72 h by more than 40%, whereas a similar decrease (under the same experimental conditions) is reported in the literature with a TMZ concentration of 100 μM.[41] U-87 cells responded less to the treatment, but we still observed a reduction in cell viability of 30%. Indeed, the experiments performed ...

[12] = test system: 3D U-118; test: PrestoBlue viability on 3D dynamic in vitro BBB model, 3D U-118; format: cell-based, human; conditions: 3D U-118 in lower chamber, injection into upper chamber, TMZ 10 μM, 72 h
Experimental: as §6

[13] = U87 MG spheroids, 10 spheroids per formulation, Fiji
[14] = U118 MG spheroids, 10 spheroids per formulation, Fiji, ***p < 0.001 vs controls

Question: What does the source list for `Cn1nnc2c(C(N)=O)ncn2c1=O` [TMZ, temozolomide]?
Answer: decrease in viability compared to the control [1]: 55%; spheroid surface area compared to control and NF-t ([2]; 3D U-87): significantly lower; Circularity [2, 13]: 0.280; Feret’s diameter [2, 13]: 841.910; Min Feret [2, 13]: 612.895; AR ([2]; U87 MG spheroids, aspect ratio of fitted ellipse, Fiji): 1.404; Round ([2]; U87 MG spheroids, roundness, Fiji): 0.732; apoptotic cells (Annexin V) [3]: initial burst of apoptosis; cell viability versus control [4]: no significant difference; apoptotic cells (Annexin V) compared to the control ([5]; 3D U-87, 24 h): four-time increasing level; necrotic cells (PI) ([5]; 3D U-87, 48 h): increase in necrotic cells; free TMZ concentration giving a similar effect as NF-TMZ (TMZ 10 μM) [6]: 100 to 250 µM; spheroid surface area compared to control and NF-t ([7]; 3D U-118): significantly lower; Circularity ([7]; U118 MG spheroids, 10 spheroids per formulation, Fiji): 0.425; Feret’s diameter [7, 14]: 512.096; Min Feret [7, 14]: 397.785; AR ([7]; U118 MG spheroids, aspect ratio of fitted ellipse, Fiji): 1.298; Round ([7]; U118 MG spheroids, roundness, Fiji): 0.802; free TMZ concentration giving a similar effect as NF-TMZ (TMZ 10 μM) ([8]; 2D U-87): 100 to 250 µM; concentrations at which TMZ acted on cell survival ([8]; 2D U-87, 24- and 48-h treatments): ≥ 100 µM; lower viability compared with the control [9]: 13%; extravasation from blood to brain [10]: ~20%; plasma half-life [10]: 2 h; water solubility [10]: poor water solubility; TMZ concentration reported for a similar decrease in cell viability [11]: 100 µM; lower viability compared with the control [12]: < 20%
